Patent US12358921B2, “Antiviral heterocyclic compounds” (priority 2022, dated 2025)

Key:
HRSV = details: prophylactic use, high risk infants; cited from earlier work
[1] = test system: HUMAN RSV-A (“LONG” STRAIN); experiment: RSV-A assay (CPE, ATPlite) in Hep-2 cells; assay type: cell-based; details: human respiratory syncytial virus, 120 h, MOI 0.1, 5-day incubation
In short: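 Protection from RSV cytopathic effect read by ATP luminescence (ATPlite) after 5-day culture. Genotype A "Long" virus added at MOI 0.1 to Hep-2 monolayers at 8,000 cells/well, pre-dosed with duplicate 2-fold compound dilutions; controls include infected untreated and uninfected wells. EC50 values binned into ranges.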

hMPV A2 TN/94-49 [2] = experiment: HMPV antiviral assay Method 1 (LLC-MK2 cells, ATP-Lite); assay type: cell-based; details: hMPV A2 TN/94-49, LLC-MK2 cells
In short: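 LLC-MK2 cells infected in suspension with hMPV A2 TN/94-49 at MOI 0.005, 5,000 cells/well, in serum-free OptiMEM with 2 μg/mL TPCK-trypsin (final) and CaCl2; compounds in duplicate, 10 points, 2 μM top, 2.5-fold dilutions. After 7 days at 37 °C, cell health by ATP-Lite luminescence; EC50 by four-parameter fit.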

hMPV A2 TN/94-49 [3] = experiment: HMPV antiviral assay Method 2 (LLC-MK2 cells with CP-100-356, ATP-Lite); assay type: cell-based; details: hMPV A2 TN/94-49, LLC-MK2 cells, 4 μM CP-100-356, Method 2
In short: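 The protective effect was measured after 7 days at 37 °C by ATP-Lite luminescence and expressed as % cell health relative to virus-only and cells-only wells, with EC50 from a four-parameter logistic. Cells were LLC-MK2 infected with strain A2 TN/94-49 (MOI 0.16) with final 2 μM CP-100-356 and 2 μg/mL TPCK-trypsin; 10 duplicate concentrations from 200 nM, 2.5-fold steps.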

In the case of Palivizumab, the “effective in reducing hospitalizations” value (HRSV) is listed as 60%.

With `COc1cc(C(=O)NC[C@@](O)(c2ccc(F)cc2)c2cc3c(c(-c4ccc5c(c4Cl)OC(F)(F)O5)n2)OC[C@]3(C)C(N)=O)cc2cn(C3(F)CC3)nc12` [Example 263] the EC50 [1] was < 0.2 µM, the EC50 (hMPV A2 TN/94-49 [2]) was < 0.5 µM and the EC50 (hMPV A2 TN/94-49 [3]) was < 0.2 µM.

For `C[C@@H](O)COc1cc(C(=O)NC[C@](O)(c2cc3c(c(-c4ccc(F)c(Cl)c4F)n2)OC[C@]3(C)C(N)=O)C2CC2)cc2cn(C3CC3)nc12` [Example 38], the EC50 [1] was < 0.2 µM, the EC50 (hMPV A2 TN/94-49 [2]) was > 0.5 µM and the EC50 (hMPV A2 TN/94-49 [3]) was < 0.2 µM.

In the case of `COc1cc(C(=O)NC[C@@](O)(c2ccccc2)c2cc3c(c(-c4ccc5c(c4)OC(F)(F)O5)n2)OC[C@]3(C)C(N)=O)cc2cn(C3CC3)nc12` [Example 18], the EC50 [1] is reported as < 0.2 µM, the EC50 (hMPV A2 TN/94-49 [2]) is reported as < 0.5 µM and the EC50 (hMPV A2 TN/94-49 [3]) is reported as < 0.2 µM.

For `COc1cc(C(=O)NC[C@](O)(c2cc3c(c(-c4ccc(F)c(Cl)c4Cl)n2)OC[C@]3(C)C(N)=O)C(F)(F)F)cc2cn(C(F)F)nc12` [Example 66], the EC50 [1] was < 0.2 µM, the EC50 (hMPV A2 TN/94-49 [2]) was < 0.5 µM and the EC50 (hMPV A2 TN/94-49 [3]) was < 0.2 µM.

In the case of `C[C@]1(C(N)=O)COc2c1cc([C@@](O)(CNC(=O)c1cc(OC3CC3)c3nn(C4(F)CC4)cc3c1)C1CC1)nc2-c1cc(Cl)c(F)cc1F` [Example 5], the EC50 [1] is reported as < 0.2 µM, the EC50 (hMPV A2 TN/94-49 [2]) is reported as < 0.5 µM and the EC50 (hMPV A2 TN/94-49 [3]) is reported as < 0.2 µM.

For `COc1cc(C(=O)NC[C@@](O)(c2ccccc2)c2cc3c(c(-c4ccc(F)c(Cl)c4Cl)n2)OC[C@]3(C)C(N)=O)cc2cc(C)nnc12` [Example 289], the EC50 [1] was < 0.2 µM, the EC50 (hMPV A2 TN/94-49 [2]) was < 0.5 µM and the EC50 (hMPV A2 TN/94-49 [3]) was < 0.2 µM.

With `Cc1nc2c(OC3CC3)cc(C(=O)NC[C@@](O)(c3ccccc3)c3cc4c(c(-c5ccc(F)c(Cl)c5Cl)n3)OC[C@]4(C)C(N)=O)cc2o1` [Example 271] the EC50 [1] was < 0.2 µM, the EC50 (hMPV A2 TN/94-49 [2]) was < 0.5 µM and the EC50 (hMPV A2 TN/94-49 [3]) was < 0.2 µM.

In the case of `COc1cc(C(=O)NC[C@@](O)(c2cccc(F)c2)c2cc3c(c(-c4cc(C(F)(F)F)c(F)cc4F)n2)OC[C@]3(C)C(N)=O)cc2cn(C3(F)CC3)nc12` [Example 296], the EC50 [1] is reported as < 0.2 µM, the EC50 (hMPV A2 TN/94-49 [2]) is reported as < 0.5 µM and the EC50 (hMPV A2 TN/94-49 [3]) is reported as < 0.2 µM.
